Test results: US5300668A, “Certain esters of 1-(4-X-methylphenyl)cyclopent-3-ene-1-carboxylic acid, wherein X is a trialkylsilyloxy, bromo or hydroxy group, as intermediates” (Pfizer Inc., priority 1993, dated 1994)

Experiments:
[1] = system: mean arterial pressure; experiment: in vivo blood pressure lowering in low sodium diet, furosemide-treated rats; settings: oral or parenteral dosing; sodium-depleted Sprague-Dawley rats
Procedure: The ability of the compounds of the invention to lower blood pressure in mammals was determined by the following in vivo protocol. Sprague-Dawley rats are placed on a low sodium diet (Purina Labs, 0.07% sodium) for 15 days. On days 11 and 13 of this period, the rats are given furosemide (Lasix, 8 mg/kg, i.m.). On day 13, the animals are anesthetized with a pentobarbital-chloral hydrate mixture (30 mg/kg pentobarbital sodium and 10 mg/kg chloral hydrate, i.p.) and the carotid artery and jugular vein are cannulated using PE50 tubing (Clay-Adams). After a 24 hour recovery period, the animals are injected on day 14 with Lasix (10 mg/kg, i.m.) and are placed in plexiglass chambers for blood pressure recording. […] When possible, blood pressure is also checked after 24 hours. According to this protocol, the compound of the invention is effective in lowering mean arterial pressure at oral dosages from about 0.1 mg/kg to about 30 mg/kg, and at parenteral dosages from about 0.01 mg/kg to about 10 mg/kg, with a duration of action of greater than 24 hours.

[2] = molecular target: T1, rat liver AII receptors (Rattus norvegicus, UniProt P25095); experiment: in vitro AII rat liver binding assay (displacement of 125I SARILE AII); settings: displacement of 125I SARILE AII from rat liver membranes; assay run with or without BSA; read-out: IC50 (concentration of compound which inhibits binding by 50%)
T1 construct: from tissue; host or cells: liver membranes (100,000 g pellet) of male Sprague-Dawley rats
T1 sequence (P25095 1-359): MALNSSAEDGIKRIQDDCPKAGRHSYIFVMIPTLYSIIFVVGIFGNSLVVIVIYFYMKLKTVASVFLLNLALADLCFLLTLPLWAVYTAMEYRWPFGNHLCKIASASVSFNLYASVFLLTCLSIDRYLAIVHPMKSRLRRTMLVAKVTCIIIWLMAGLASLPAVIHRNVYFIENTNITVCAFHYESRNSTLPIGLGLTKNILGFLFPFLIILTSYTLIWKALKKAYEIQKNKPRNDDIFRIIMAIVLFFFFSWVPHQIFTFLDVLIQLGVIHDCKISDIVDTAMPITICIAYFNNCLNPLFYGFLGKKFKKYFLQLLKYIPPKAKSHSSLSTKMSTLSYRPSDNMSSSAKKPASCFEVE
Procedure: The compound of the present invention is readily adapted to clinical use as a modulator of AII action at the AII receptor. The ability of the compound to modulate AII action was determined by an in vitro AII rat liver binding assay which measures its ability to displace ^125 I sarcosine-1, isoleucine-8, angiotensin II (SARILE AII, obtained from New England Nuclear) from rat liver AII receptors. For this assay, the following materials are used.
Homogenation buffer (10 mM Tris, 0.2M sucrose, 1.0 mM EDTA), prepared using 1.21 g Tris base, […] sucrose and 336 mg EDTA in 1000 ml water, adjusted to pH 7.4 using HCl.
Buffer A (50 mM Tris, 5 mM MgCl2), prepared using 6.05 g Tris base and 1.02 g MgCl2.6H2 O in 1000 ml water.
Assay buffer, prepared using 200 ml Buffer A and 0.5 g BSA. […]
The compound being tested is made up to an initial concentration of 2 mM in 100% DMSO. […] The filters are cut, placed in test tubes and counted on a Gamma Counter. The mean for all triplicate points are calculated and total specific binding is calculated by subtracting nonspecific counts from total counts. Binding in the presence of compound (COUNTS) is calculated by subtracting nonspecific counts from counts in the presence of compound. Percent binding of SARILE All in the presence of compound is calculated by dividing COUNTS by total specific counts. […]

Q: How did the “duration of action (lowering of mean arterial pressure)” value [1] turn out when CCc1nc2c(C)cc(C)nc2n1Cc1ccc(C2(C(=O)O)CC=CC2)cc1 [Example 1, 1-[4'-(2"-ethyl-5",7"-dimethylimidazo[4,5-b]pyridin-3-yl)methylphenyl]cyclopent-3-ene-1-carboxylic acid] was run?
A: The value was “greater than 24 hours”.

Q: And the IC50 [2]?
A: The IC50 was < 0.1 µM.
